Measurements from patent US20260193227A1, “THERAPEUTIC COMPOUNDS AND METHODS” (UNIVERSITY OF IOWA RESEARCH FOUNDATION, priority 2022, published 2026).
Where a chain is given by its changes, count along the chain named.

Key:
RPA-ssDNA-RAD52 complex = molecular target: T1, RPA-ssDNA-RAD52 complex (Homo sapiens, UniProt P43351); assay: FRET-based inhibition of the RPA-ssDNA-RAD52 complex; type: binding; conditions: for effect on the RPA-ssDNA-RAD52 complex: FRET titration
T1 construct: 6xHis; made in house
T1 sequence (P43351 1-418): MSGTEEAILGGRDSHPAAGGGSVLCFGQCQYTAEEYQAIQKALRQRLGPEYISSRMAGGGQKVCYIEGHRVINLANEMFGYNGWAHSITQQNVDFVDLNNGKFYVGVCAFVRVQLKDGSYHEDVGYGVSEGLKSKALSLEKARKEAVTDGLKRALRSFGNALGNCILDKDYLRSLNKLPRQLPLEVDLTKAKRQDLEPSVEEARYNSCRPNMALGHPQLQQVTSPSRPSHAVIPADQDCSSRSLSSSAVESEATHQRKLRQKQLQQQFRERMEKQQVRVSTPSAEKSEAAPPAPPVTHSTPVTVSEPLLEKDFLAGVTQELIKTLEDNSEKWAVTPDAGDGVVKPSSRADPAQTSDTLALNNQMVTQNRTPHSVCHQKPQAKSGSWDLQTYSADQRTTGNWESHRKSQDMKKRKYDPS
Experimental: (§1) Proteins: The 6×His-tagged human RAD52 proteins (wild type and mutants) and untagged human RPA were expressed and purified as previously described in (Hengel S R, eLife. 2016; 5; Grimme J M, et al., Nucleic Acids Res. 2010; 38(9):2917-30; and Henricksen L A, et al., The Journal of biological chemistry. 1994; 269(15):11121-32). RPA and RAD52 protein concentrations were determined by measuring absorbance at 280 nm using extinction coefficients of 88,830 M^−1 cm^−1 and 40,470 M^−1 cm^−1, respectively.
(§2) FRET-based DNA binding and inhibition assays: FRET-based that monitor the RAD52-ssDNA, RPA-ssDNA and RAD52-RPA-ssDNA binding were carried out as previously described (Hengel S R, eLife. 2016; 5; Grimme J M, et al., Nucleic Acids Res. 2010; 38(9):2917-30; and Grimme J M, Spies M. FRET-based assays to monitor DNA binding and annealing by Rad52 recombination mediator protein. Methods in molecular biology (Clifton, NJ). 2011; 745:463-83) using Cary Eclipse Spectrofluorimeter (Agilent) at 25° C., in 5 mm quartz cuvettes, and in buffer containing 30 mM Tris-Acetate (pH 7.5) and 1 mM DTT. Cy3 dye was excited at 530 nm and its emission was monitored at 565 nm. Emission of Cy5 acceptor fluorophore excited through the energy transfer from Cy3 donor is monitored at 660 nm simultaneously with emission of Cy3 dye. Both the excitation and the emission slits were set to 10 nm. All experiments were carried out using 1 nM (molecules) Cy3-dT30-Cy5 ssDNA. The optimal concentrations of the RAD52 (6 nM) and RPA (1 nM) proteins were selected by titrating the respective protein into 1 nM Cy3-dT30-Cy5 solution, and chosen based on the largest separation of the FRET values corresponding to the protein bound and free DNA.
(§3) The inhibition of the RAD52-ssDNA, RPA-ssDNA and RAD52-RPA-ssDNA complexes was evaluated by titrating each compound to the respective complex, measuring Cy3 and Cy5 fluorescence, and calculating FRET as previously described (Hengel, S. R., et al., eLife, 5).
(§4) Spectral properties of many compounds overlapped with the Cy3 and Cy5 fluorescence. To correct the calculated FRET values for the compound signal, the fluorogenic compounds were titrated into buffer and into solution of 1 nM Cy3-dT30-Cy5. For all tested compounds, the change in the signal in the Cy3 and Cy5 channels with and without Cy3/Cy5-labeled DNA present was the same. […] To account for the dye fluorescence, for each compound concentration, the apparent change in FRET of the ssDNA in the presence the compound was subtracted from the respective FRET signal of the RAD52-ssDNA, RPA-ssDNA or RAD52-ssDNA-RPA complex at the same inhibitor concentration. The IC50 values were calculated by fitting the corrected FRET data to the four-parameter dose response model using GraphPad Prism. All data are shown as average for at least three independent experiments ±standard deviation. The IC50 values are presented with their respective fitting error.

[1] = molecular target: T2, RAD52 IB mutant (K152A/R153A) (Homo sapiens, UniProt P43351, K152A/R153A); assay: FRET-based inhibition of ssDNA binding, inner binding defective RAD52 mutant
T2 construct: 6xHis; made in house
T2 sequence (P43351 1-418 K152A/R153A): T1 sequence (P43351 1-418) with K152A, R153A
Experimental: as §1
as §2, with “Both the excitation and the emission slits were set to 10 nm. All experiments were carried out using 1 nM (molecules) Cy3-dT30-Cy5 ssDNA. The optimal concentrations of the RAD52 (6 nM) and RPA (1 nM) proteins were selected by titrating the respective protein into 1 nM Cy3-dT30-Cy5 solution, and chosen based on the largest separation of the FRET values corresponding to the protein bound and free DNA.” left out
Spectral properties of many compounds overlapped with the Cy3 and Cy5 fluorescence. […]

[2] = system: RAD52 OB mutant (K102A/K103A/K169A/R173A); assay: FRET-based inhibition of ssDNA binding, outer binding defective RAD52 mutant; design: species or system human; conditions: for fold lower IC50 (increased efficiency) against OB mutant compared to IB mutant: Z56: wild type and IB mutant within the fitting error
Experimental: as §1, §2, §3
as §4, with “All data are shown as average for at least three independent experiments ±standard deviation. The IC50 values are presented with their respective fitting error.” left out

Row | Structure (SMILES) | effect on the RPA-ssDNA-RAD52 complex (RPA-ssDNA-RAD52 complex) | fold lower IC50 for the RPA-ssDNA-RAD52 complex than for the RAD52-ssDNA complex (RPA-ssDNA-RAD52 complex; wild type RAD52) | inhibition of ssDNA binding to IB mutant RAD52 [1] | inhibition of ssDNA binding to OB mutant RAD52 [2] | fold lower IC50 (increased efficiency) against OB mutant compared to IB mutant [2]
1 | COc1ccccc1NS(=O)(=O)c1cc(C(=O)O)ccc1C [Example 8] | decreases the FRET values of the RPA-ssDNA-RAD52 complex | 6 fold | able to inhibit | able to inhibit | 6 fold
2 | O=C(Cn1cccc([N+](=O)[O-])c1=O)c1c[nH]c2ccccc12 [Example 1] | yields FRET values corresponding to the free ssDNA | – | able to inhibit | able to inhibit | 6 fold
